Data: US5606038A, “Amphiphilic polyene macrolide antibiotic compounds” (Competitive Technologies, Inc., priority 1995, dated 1997)
Converted amounts (≈) assume the structure as drawn. Where two headings read alike, the source gives them in different places.

Columns and labels:
[1] = hemolysis, 50% release of hemoglobin from human red blood cells; details: human, red blood cells
[2] = tested on: Candida albicans; test: K+ release from fungal cells; assay type: cell-based; details: 3×10^7 fungal cells/ml, read-out: concentration for releasing 50% of the K+ from fungal cells
[3] = tested on: Candida albicans; test: minimum inhibitory concentration, Candida albicans, broth microdilution; assay type: cell-based; details: 24 h, 37° C.
Procedure: ^c minimum inhibitory concentration (see Example IV); three different
strains of Candida albicans were tested; all tests were done in broth
microdilution in yeast nitrogen baseglucose at 37° C. for 24 hours
the initial inoculum was 1 × 10^4 blastospores per ml
The minimum inhibitory concentration reported in Table I was obtained, and further confirmed as reported in Table II, by the methods described in the following Example IV.
(§1) Microorganism inocula was harvested from one to five day old cultures grown on Sabourand's dextrose agar. After two washes with sterile saline, the inocula were counted utilizing a hemacytometer and diluted or concentrated as required to 1×10^4 blastospores per ml. Sterile molten agar (at 50° C.) was inoculated, allowed to cool, and 10 mm diameter discs impregnated (from […] stock solutions) with each of the test compounds was placed on the surface of the agar. Zones of inhibition were measured after incubating the plates at 30° C. for 24-48 hours.
(§2) The compounds were then screened against three strains of three species of microorganisms: Candida albicans, Cryptococcus neoformans, and Aspergillus fumigatus using a conventional double dilution technique. All tests reported in Table II were done by broth microdilution in yeast nitrogen base-glucose using an inoculum of 1×10^4 blastospores per ml; the cultures were incubated at 37° C. for 24 hours, and the minimum concentration (in μg/ml) that prevents visible growth was recorded as the minimum inhibitory concentration.

[4] = tested on: Cryptococcus neoformans; test: minimum inhibitory concentration, Cryptococcus neoformans, broth microdilution; assay type: cell-based; details: 24 h
Procedure: as §1, §2

[5] = UV-vis spectroscopy of interaction with cholesterol-containing large unilamellar vesicles; details: 2.6 μM; 1 mM egg PC and 0.5 mM cholesterol; 20 minutes, 23° C.
From the text: (§3) In order to confirm that the poly(ethylene glycol)conjugates of the present invention retain their ability to recognize ergosterol-rich bilayers, their interaction with sterol-containing large unilamellar vesicles (1000 A diameter, LUVs) by UV-vis spectroscopy using published techniques [see J. Am. Chem. Soc. 115:708 (1993)]. […] Thus, the poly(ethylene glycol) conjugates according to the present invention recognize ergosterol-rich bilayers in a way that is similar to Amphotericin B.

[6] = tested on: Cryptococcus neoformans (isolate NIH C-1); test: survival of mice infected with Cryptococcus neoformans (Example VI); assay type: in vivo, Cryptococcus neoformans in ICR mice; details: 30 mg/kg i.p. once per day
From the text: Ten immunocompetent ICR mice weighing 30 g each in two groups were inoculated intravenously with 255 colony forming units of Cryptococcus neoformans (isolate NIH C-1) per mouse.

[7] = tested on: Candida albicans (isolate NIH A); test: survival of mice infected with Candida albicans (Example V); assay type: in vivo, Candida albicans in ICR mice; details: i.p. once per day for ten days, Example II 30 mg/kg, Amphotericin B 1 mg/kg
From the text: Ten immunocompetent ICR mice weighing 30 g each in three groups were inoculated intravenously with 3.2×10^6 colony forming units of Candida albicans (isolate NIH A) per mouse.

[8] = solubility in water; assay type: physicochemical
[9] = tested on: Candida albicans (isolate NIH A); test: MIC against infecting isolate of Example V; assay type: cell-based; details: 24 and 48 hours
[10] = tested on: Cryptococcus neoformans (isolate NIH C-1); test: MIC against infecting isolate of Example VI; assay type: cell-based
[11] = critical micelle concentration in PBS by molar absorptivity at 409 nm; assay type: physicochemical; details: PBS (pH 7.4), 37° C.
From the text: In its monomeric state, Amphotericin B has a characteristic absorption band at 409 nm; upon aggregation, however, its apparent molar absorptivity decreases in magnitude [see Biochemistry 30:5707 (1991)]. Thus, by measuring its molar absorptivity as a function of the reciprocal of the macrolide concentration, one can estimate the critical micelle concentration. This can be shown mathematically by allowing T, m and P to represent the total, monomeric, and micellar concentrations (i.e. the concentration of the drug that is present in micellar form) of the macrolide, respectively, and if ε represents the apparent molar absorptivity and εm and εp are the molar absorptivity for the monomeric and micellar components, respectively, then it can be shown that ε=εp +(εm -εp)m/T. At concentrations in excess of the critical micelle concentration, m is a constant and ε is inversely proportional to T.
Using the method described previously, the critical micelle concentrations for Amphotericin B and the conjugates described in the preceding examples were determined and are reported in Table I describing the aggregation, antifungal and hemolytic properties of […] macrolide antibiotics (in μM amounts) according to the present invention.
^a critical micelle concentration was determined in PBS (pH 7.4) at […]

[12] = tested on: Aspergillus fumigatus; test: minimum inhibitory concentration, Aspergillus fumigatus, broth microdilution; assay type: cell-based; details: 24 h, 37° C.
Procedure: as §1, §2

[13] = UV-vis spectroscopy of interaction with ergosterol-containing large unilamellar vesicles; details: Example II: 2.6 μM; 1 mM egg phosphatidyl choline and 0.5 mM ergosterol; 20 minutes, 23° C.
From the text: as §3

Compound `COCCOCCOCCOCCOCCOCCNC(=O)[C@H]1[C@@H]2C[C@@H](O[C@@H]3O[C@H](C)[C@@H](O)[C@H](N)[C@@H]3O)/C=C/C=C/C=C/C=C/C=C/C=C/C=C/[C@H](C)[C@@H](O)[C@@H](C)[C@H](C)OC(=O)C[C@H](O)C[C@H](O)CC[C@@H](O)[C@H](O)C[C@H](O)C[C@](O)(C[C@@H]1O)O2` [Example II] has an HC50 at 1 h [1] of 42 µM, an EC50 [2] of 1000 nM and an MIC ([3]; C. albicans (1), read-out: minimum inhibitory concentration) of 6.4 µg/mL. For the same compound, the MIC ([3]; C. albicans (2), read-out: minimum inhibitory concentration) was 3.2 µg/mL, the MIC ([3]; C. albicans (3), read-out: minimum inhibitory concentration) was 3.2 µg/mL and the MIC ([3]; three strains of Candida albicans, yeast nitrogen base-glucose, 1 × 10^4 blastospores per ml, read-out: MIC (minimum inhibitory concentration)) was 2.7 µM. The MIC ([4]; C. neoformans (1), 37° C., read-out: minimum inhibitory concentration) was 3.2 µg/mL (≈ 2.66 µM), the MIC ([4]; C. neoformans (2), 37° C., read-out: minimum inhibitory concentration) was 3.2 µg/mL (≈ 2.66 µM) and the MIC ([4]; read-out: minimum inhibitory concentration, C. neofornams (3), 37° C.) was 3.2 µg/mL (≈ 2.66 µM). For the same compound, the “absorption spectrum with cholesterol-containing vesicles” value [5] was “essentially the same as that observed in the presence of egg phosphatidyl choline vesicles (without sterol)”, the percent survival ([6]; day 9 post-infection) was 100% and the percent survival ([6]; day 10 post-infection) was 100%. The percent survival ([6]; day 13 post-infection) was 100%, the percent survival ([6]; day 14 post-infection) was 90% and the percent survival ([6]; day 15 post-infection) was 90%. It also gave a percent survival ([6]; day 16 post-infection) of 90%, a percent survival ([6]; day 17 post-infection) of 90% and a percent survival ([6]; day 18 post-infection) of 90%. The percent survival ([6]; day 19 post-infection) was 90%, the percent survival ([6]; day 20 post-infection) was 90% and the percent survival ([6]; day 21 post-infection) was 90%. The percent survival ([6]; day 22 post-infection) was 70%, the percent survival ([6]; day 25 post-infection) was 70% and the percent survival ([6]; day 26 post-infection) was 60%. For the same compound, the percent survival ([6]; day 27 post-infection) was 60%, the percent survival ([6]; day 28 post-infection) was 50% and the percent survival ([6]; day 29 post-infection) was 50%. It also gave a percent survival ([6]; day 30 post-infection) of 40%, a percent survival ([7]; day 2 post-infection) of 100% and a percent survival ([7]; day 3 post-infection) of 100%. It also gave a percent survival ([7]; day 4 post-infection) of 100%, a percent survival ([7]; day 5 post-infection) of 100% and a percent survival ([7]; day 6 post-infection) of 100%. The percent survival ([7]; day 7 post-infection) was 90%, the percent survival ([7]; day 30 post-infection) was 90% and the solubility [8] was no less than 10000 µg/mL. The MIC ([9]; in DMSO and water) was 3.03 µg/mL (≈ 2.52 µM), the MIC ([9]; in water only) was no more than 6.06 µg/mL and the MIC [10] was no more than 6.06 µg/mL. For the same compound, the MIC ([10]; 48 h) was 1.51 µg/mL (≈ 1.26 µM), the MIC ([10]; 72 h) was 3.03 µg/mL (≈ 2.52 µM) and the “cmc (critical micelle concentration)” value [11] was 25 µM. For the same compound, the MIC ([12]; A. fumigatus (1)) was 6.4 µg/mL (≈ 5.33 µM), the MIC ([12]; A. fumigatus (2)) was 3.2 µg/mL (≈ 2.66 µM) and the MIC ([12]; A. fumigatus (3)) was 3.2 µg/mL (≈ 2.66 µM). The “absorption spectrum change with ergosterol-containing vesicles” value [13] was “strong diminution in the monomer band at 409 nm and new bands at 415, 390 and 375 nm”.
